# Data published in patent US20230322724A1, “HETEROCYCLIC COMPOUNDS AS CBP/EP300 BROMODOMAIN INHIBITORS” (AURIGENE ONCOLOGY LIMITED, priority 2020, published 2023).
# Target: T1, recombinant CREBBP bromodomain (Homo sapiens, UniProt Q92793)
# T1 construct: recombinant CREBBP bromodomain obtained from BPS Bioscience, USA; purchased BPS Bioscience, USA
# Assay: CBP TR-FRET displacement assay
# Assay type: binding
# Details: compound at 10 μM
# Procedure: The potency of compounds to inhibit CREBBP enzyme was tested in a TR-FRET displacement assay using recombinant CREBBP bromodomain obtained from BPS Bioscience, USA. The assay buffer was 50 mM HEPES (pH 7.5), 50 mM NaCl, 0.008% Brij 35, 0.01% BSA, 1 mM TCEP. 50 nM of CREBBP & 500 nM of Biotinylated ligand was incubated at room temperature for 30 minutes, the reaction was initiated by adding pre-incubated enzyme ligand mixture to the test compounds. After 60 min incubation, the reaction was stopped by the addition of stop mix containing 1 nM of LANCE Europium-anti-6xHis antibody (Perkin Elmer, USA) and 40 nM of Sure Light Allophycocyanin-Streptavidin (Perkin Elmer, USA). Fluorescence emission of the samples at 665 and 615 nm were measured at an excitation of 340 nm and their ratio was plotted against the compound concentrations to generate dose-response curve. The percent inhibition of the test compounds is calculated using the ratio of enzyme activity controls.
# elected compounds of the present invention were screened in the above-mentioned assay procedures and IC50 values were determined by fitting the dose-response data to sigmoidal curve fitting equation using Graph pad prism software V7.
# T1 sequence (Q92793 1085-1192 limits assumed): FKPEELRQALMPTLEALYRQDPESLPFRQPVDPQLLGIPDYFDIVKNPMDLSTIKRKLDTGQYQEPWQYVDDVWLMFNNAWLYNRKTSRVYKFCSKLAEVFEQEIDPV
row,inhibition at 10 µM [%],SMILES
1,25,COc1cc2c(cc1-c1cnn(C)c1)CCCN2c1cccc2[nH]c(=O)c(C)cc12 [Example 188]
2,52,Cc1cc2c(N3CCc4ccc(-c5cnn(C)c5)cc4C3)cccc2n(C)c1=O [Example 190]
3,47,"CNC(=O)c1ccc(-c2cc3c(cc2C(F)F)N(c2cc(OC)cc4c2cc(C)c(=O)n4C)CCC3)cn1 [Example 192, 5-(7-(Difluoromethyl)-7′-methoxy-1′,3′-dimethyl-2′-oxo-1′,2′,3,4-tetrahydro-2H-[1,5′-biquinolin]-6-yl)-N-methylpicolinamide]"

# Same assay, conditions: dose-response, read-out: IC50 (group A, B, C)
row,IC50 [nM],SMILES
1,51 to 100,"Cc1cc2c(N3CCN(C)c4cc(-c5cnn(C)c5)ncc43)cc(O)cc2n(C)c1=O [Example 145, 7-Hydroxy-1,3-dimethyl-5-(1-methyl-7-(1-methyl-1H-pyrazol-4-yl)-2,3-dihydropyrido[3,4-b]pyrazin-4(1H)-yl)quinolin-2(1H)-one]"
2,51 to 100,"Cc1cc2c(N3CCN(C)c4cc(-c5cnn(C)c5)ncc43)cc(C#CCO)cc2n(C)c1=O [Example 155, 7-(3-Hydroxyprop-1-yn-1-yl)-1,3-dimethyl-5-(1-methyl-7-(1-methyl-1H-pyrazol-4-yl)-2,3-dihydropyrido[3,4-b]pyrazin-4(1H)-yl)quinolin-2(1H)-one]"
3,< 50,Cc1cc2c(N3CCN(C)c4cc(-c5cnn(C)c5)ncc43)cc(OC3CCOCC3)cc2n(C)c1=O [Example 158]
4,> 10,"Cc1cc2c(N3CCN(C)c4cc(-c5cnn(C)c5)[n+]([O-])cc43)cc(N3CCOCC3)cc2n(C)c1=O [Example 160, 4-(1,3-Dimethyl-7-morpholino-2-oxo-1,2-dihydroquinolin-5-yl)-1-methyl-7-(1-methyl-1H-pyrazol-4-yl)-1,2,3,4-tetrahydropyrido[3,4-b]pyrazine 6-oxide]"
5,< 50,Cc1cc2c(N3CCCc4cc(-c5cnn(C)c5)ncc43)cc(N3C[C@H]4C[C@@H]3CO4)cc2n(C)c1=O [Example 168]
6,< 50,Cc1cc2c(N3CCCc4cc(-c5cnn(C)c5)ncc43)cc(N3CCOCC3)cc2n(C)c1=O [Example 169]
7,< 50,Cc1cc2c(N3CCSc4cc(-c5cnn(C)c5)ncc43)cc(N3CCOCC3)cc2n(C)c1=O [Example 171]
8,51 to 100,"CC(=O)N1CCN(c2cc3c(cc2C(F)F)N(c2cc(N4CCOCC4)cc4c2cc(C)c(=O)n4C)CCC3)CC1 [Example 174, 6-(4-Acetylpiperazin-1-yl)-7-(difluoromethyl)-1′,3′-dimethyl-7′-morpholino-3,4-dihydro-2H-[1,5′-biquinolin]-2′(1′H)-one]"
9,> 10,COc1cc(N2CCCc3ccc(C(F)F)cc32)c2cc(C)c(=O)n(C)c2c1 [Example 175]
10,51 to 100,Cc1cc2c(N3CCCc4cc(-c5cnn(C)c5)c(C(F)F)cc43)cc(N3CC[C@@H](O)C3)cc2n(C)c1=O [Example 177]
11,> 10,COc1cc(N2CCCc3ccc(C#N)cc32)c2cc(C)c(=O)n(C)c2c1 [Example 184]
12,> 10,COc1cc(N2CCCc3cc(N4CCN(C(C)=O)CC4)ccc32)c2cc(C)c(=O)n(C)c2c1 [Example 185]
13,51 to 100,CNC(=O)c1ccc(-c2ccc3c(c2)CCCN3c2cc(OC)cc3c2cc(C)c(=O)n3C)cn1 [Example 186]
14,> 10,CNC(=O)C1CCN(c2ccc3c(c2)CCCN3c2cc(OC)cc3c2cc(C)c(=O)n3C)CC1 [Example 187]
15,> 10,COc1cc(N2CCc3cccc(-c4cnn(C)c4)c3C2)c2cc(C)c(=O)n(C)c2c1 [Example 189]
16,> 10,COc1cc(N2CCc3c(c(-c4cnn(C)c4)nn3C)C2)c2cc(C)c(=O)n(C)c2c1 [Example 191]

row,IC50 [nM],SMILES
1,< 50,Cc1cc2c(N3CCCc4cc(-c5cnn(C)c5)c(C(F)F)cc43)nc(N3CC(O)C(O)C3)cc2n(C)c1=O (centres unmarked) [Example 213]
2,< 50,CC(=O)NC1CCN(c2cc3c(cc(C)c(=O)n3C)c(N3CCCc4cc(-c5cnn(C)c5)c(C(F)F)cc43)n2)C1 (centres unmarked) [Example 216]
3,> 10,Cc1cc2c(N3CCN(C)c4cc(-c5cnn(C)c5)ncc43)nc(N3C4CCC3COC4)cc2n(C)c1=O [Example 221]
4,< 50,Cc1cc2c(N3CCCc4cc(-c5cnn(C)c5)c(C(F)F)cc43)nc(N3CCC(C)(N)CC3)cc2n(C)c1=O [Example 222]
5,< 50,Cc1cc2c(N3CCCc4cc(-c5cnn(C)c5)c(C(F)F)cc43)nc(N3CCN(C)CC3)cc2n(C)c1=O [Example 223]
6,51 to 100,Cc1cc2c(N3CCCc4cc(C5CCCO5)c(C(F)F)cc43)nc(N3CC[C@@H](O)C3)cc2n(C)c1=O (some centres unmarked) [Example 227]
7,< 50,Cc1cc2c(N3CCCc4cc(C5CCOC5)c(C(F)F)cc43)nc(N3CC[C@@H](O)C3)cc2n(C)c1=O (some centres unmarked) [Example 228]
8,51 to 100,COc1cc2c(cc1-c1cnn(C)c1)CCCN2c1nc(N2CCC(O)C2)cc2c1cc(C)c(=O)n2C (centres unmarked) [Example 232]
9,< 50,"Cc1cc2c(N3CCCc4cc(-c5cccn(C)c5=O)c(C(F)F)cc43)nc(C3CCOCC3)cc2n(C)c1=O [Example 235, 5-(7-(difluoromethyl)-6-(1-methyl-2-oxo-1,2-dihydropyridin-3-yl)-3,4-dihydroquinolin-1(2H)-yl)-1,3-dimethyl-7-(tetrahydro-2H-pyran-4-yl)-1,6-naphthyridin-2(1H)-one]"
10,< 50,Cc1cc2c(N3CCCc4cc(N5CC(C)NC(C)C5)c(C(F)F)cc43)nc(C3CCOCC3)cc2n(C)c1=O (centres unmarked) [Example 236]
11,< 50,Cc1cc2c(N3CCCc4cc(N5CCC(C)(N)CC5)c(C(F)F)cc43)nc(C3CCOCC3)cc2n(C)c1=O [Example 237]
12,< 50,COc1cc2c(cc1-c1cnn(C)c1)CCCN2c1nc(C2CCOCC2)cc2c1cc(C)c(=O)n2C [Example 238]
13,51 to 100,COc1cc2c(cc1-c1cnn(C)c1)C(C)CCN2c1nc(C2CCOCC2)cc2c1cc(C)c(=O)n2C (centres unmarked) [Example 239]
14,< 50,"Cc1cc2c(N3CCCc4cc(-c5cnn(C)c5)c(O)cc43)nc(C3CCOCC3)cc2n(C)c1=O [Example 244, 5-(7-Hydroxy-6-(1-methyl-1H-pyrazol-4-yl)-3,4-dihydroquinolin-1(2H)-yl)-1,3-dimethyl-7-(tetrahydro-2H-pyran-4-yl)-1,6-naphthyridin-2(1H)-one]"
15,51 to 100,"COc1cc2c(cc1-c1cnn(C)c1)CCCN2c1nc(N2CCC(S(N)(=O)=O)C2)cc2c1cc(C)c(=O)n2C (centres unmarked) [Example 246, 1-(5-(7-Methoxy-6-(1-methyl-1H-pyrazol-4-yl)-3,4-dihydroquinolin-1(2H)-yl)-1,3-dimethyl-2-oxo-1,2-dihydro-1,6-naphthyridin-7-yl)pyrrolidine-3-sulfonamide]"

# Target: T2, recombinant BRD4 FL bromodomain (Homo sapiens, UniProt O60885)
# T2 construct: fused on or other part: 6xHis tag, inferred from detection with Mab ANTI 6HIS-XL665
# Assay: BRD4 FL TR-FRET displacement assay
# Assay type: binding
# Details: BRD4 FL, compound at 10 μM; read-out: % Inhibition (10 μM)
# Procedure: The potency of compounds to inhibit BRD4 FL enzyme was tested in a TR-FRET displacement assay using recombinant BRD4 FL bromodomain obtained In-house. The assay buffer was 50 mM HEPES (pH 7.5), 50 mM NaCl, 500 μM CHAPS. 10 nM of BRD4 FL & 300 nM of Biotinylated Acetyl histone H4 (Lys 5, 8, 12, 16) (Millipore, USA) was incubated at room temperature for 30 minutes, the reaction was initiated by adding the pre-incubated enzyme ligand mixture to the test compounds. After 30 min incubation, the reaction was stopped by the addition of stop mix containing 1 nM of Europium Streptavidin cryptate (Cisbio, USA) and 5 nM of Mab ANTI 6HIS-XL665 (Cisbio, USA) dilutes in assay buffer containing 2.4M Potassium Fluoride. Fluorescence emission of the samples at 665 and 615 nm were measured at an excitation of 340 nm and their ratio was plotted against the compound concentrations to generate dose-response curve. The percent inhibition of the test compounds is calculated using the ratio of enzyme activity controls.
# Selected compounds of the present invention were screened in the above-mentioned assay procedures and IC50 values were determined by fitting the dose-response data to sigmoidal curve fitting equation using Graph pad prism software V7.
row,inhibition at 10 µM [%],SMILES
1,34,COc1cc(N2CCN(C)c3cc(N4CCCC(C#N)C4)ncc32)c2cc(C)c(=O)n(C)c2c1 (centres unmarked) [Example 120]
2,33,COc1cc(N2CCN(C)c3cc(N4CCCC(NC(C)=O)C4)ncc32)c2cc(C)c(=O)n(C)c2c1 (centres unmarked) [Example 122]
3,26,Cc1cc2c(N3CCN(C)c4cc(C5CCOC5)ncc43)cc(N3CCOCC3)cc2n(C)c1=O (centres unmarked) [Example 137]
4,43,Cc1cc2c(N3CCN(C)c4cc(N5CCCCC5)ncc43)cc(N3CCOCC3)cc2n(C)c1=O [Example 139]

# Same assay, conditions: BRD4 FL, dose-response; read-out: IC50 (group A, B, C)
row,IC50 [nM],SMILES
1,2010 to 5000,"COc1cc(N2CCN(C)c3ccc([S+](C)[O-])cc32)c2cc(C)c(=O)n(C)c2c1 (single isomer, unassigned) [Example 249]"
2,2010 to 5000,"Cc1cc2c(N3CCN(C)c4ccc(S(N)(=O)=O)cc43)cc(N3CC[C@@H](O)C3)cc2n(C)c1=O [Example 92, (R)-4-(7-(3-Hydroxypyrrolidin-1-yl)-1,3-dimethyl-2-oxo-1,2-dihydroquinolin-5-yl)-1-methyl-1,2,3,4-tetrahydroquinoxaline-6-sulfonamide]"
3,2010 to 5000,COc1cc(N2CCN(C)c3cc(N4CCN(C(C)=O)CC4)ncc32)c2cc(C)c(=O)n(C)c2c1 [Example 119]
4,2010 to 5000,Cc1cc2c(N3CCN(C)c4cc(C5CC5)ncc43)cc(N3CCOCC3)cc2n(C)c1=O [Example 138]
5,2010 to 5000,Cc1cc2c(N3CCN(C)c4cc(-c5cnn(C)c5)ncc43)cc(N3CCCC(C#N)C3)cc2n(C)c1=O (centres unmarked) [Example 149]
6,2010 to 5000,"COc1cc(N2CCCc3ccc(NC(C)=O)cc32)c2cc(C)c(=O)n(C)c2c1 [Example 196, N-(7′-methoxy-1′,3′-dimethyl-2′-oxo-1′,2′,3,4-tetrahydro-2H-[1,5′-biquinolin]-7-yl)acetamide]"
